Assay results: patent US7884136B2, “Modified-release formulations of a bupropion salt” (Biovail Laboratories International S.R.L., priority 2005, dated 2011)

Test: pH of 0.5% aqueous solution of bupropion salts
Assay type: physicochemical
Conditions: 0.5% aqueous solution, original API salts
Method: (§1) The eight salts were first evaluated by HPLC, KF, pH and DSC for purity, water content, aqueous pH and possible polymorphs.
(§2) The salts were analysed by DSC (at 10° C./min from 30° C. up to 400° C.) and the pH (aq. 0.5%), and the moisture content by KF were also measured. The TGA was performed on the HCl, maleate, tosylate and HBr salts.

Compound	pH (aq. 0.5%), Original (Initial APIs)
CC(NC(C)(C)C)C(=O)c1cccc(Cl)c1.CC(NC(C)(C)C)C(=O)c1cccc(Cl)c1.O=C(O)C(O)C(O)C(=O)O (stereo not drawn) [Bupropion tartrate neutral]	3.62
Bupropion succinate	4.82
Bupropion Fumarate	3.84
CC(NC(C)(C)C)C(=O)c1cccc(Cl)c1.O=C(O)C(O)C(O)C(=O)O (stereo not drawn) [Bupropion tartrate acid]	3.62

Test: Moisture content of bupropion salts by KF
Assay type: physicochemical
Conditions: original API salts
Method: as §1, §2

Compound	KF (moisture content), Original (Initial APIs) [%]
CC(NC(C)(C)C)C(=O)c1cccc(Cl)c1.CC(NC(C)(C)C)C(=O)c1cccc(Cl)c1.O=C(O)C(O)C(O)C(=O)O (stereo not drawn) [Bupropion tartrate neutral]	0.14
Bupropion succinate	0.13
Bupropion Fumarate	0.09
CC(NC(C)(C)C)C(=O)c1cccc(Cl)c1.O=C(O)C(O)C(O)C(=O)O (stereo not drawn) [Bupropion tartrate acid]	0.18

Test: not given
Conditions: Ionic Surfactants; as reported by the manufacturer; cited from earlier work

Compound	HLB
CCCCCCCCCCCCOS(=O)(=O)[O-].[Na+] [Sodium lauryl sulfate (dodecyl)]	40

Same assay, conditions: Lower Alcohol Fatty Acid Ester Surfactants; as reported by the manufacturer; cited from earlier work

Compound	HLB
CCCCC/C=C\C/C=C\CCCCCCCC(=O)OC(C)C [Isopropyl linoleate]	<10
CCCCCCCC/C=C\CCCCCCCC(=O)OCC [Ethyl oleate]	<10

Same assay, conditions: Mono- and Diglyceride Surfactants; cited from earlier work

Compound	HLB
CC(=O)OCC(O)CO (stereo not drawn) [Glyceryl acetate]	<10
CCCCCCCCCCCCCCCCCC(=O)OCC(O)CO (stereo not drawn) [Glycerol monostearate]	5-9
CCCCCCCCCCCC(=O)OCC(O)CO (stereo not drawn) [Monolaurin]	<10
CCCCCC[C@@H](O)C/C=C\CCCCCCCC(=O)OCC(O)CO (stereo partly drawn) [Glyceryl ricinoleate]	6
Glyceryl monostearate	4.4
CCCCCCCCCCCCCC(=O)OCC(O)CO (stereo not drawn) [Glyceryl monomyristate (C14)]	3-4
CCCCCCCC(=O)OCC(O)CO (stereo not drawn) [Monocaprylin]	<10

Same assay, conditions: PEG Glycerol Fatty Acid Esters; cited from earlier work

Compound	HLB
PEG-20 glyceryl oleate	>10

Same assay, conditions: PEG-Fatty Acid Diester Surfactants; cited from earlier work

Compound	HLB
PEG-400 dioleate	>10
PEG-8 dioleate	8.8
PEG-4 dilaurate	7
PEG-6 distearate	6.5
PEG-400 distearate	>10
PEG-4 dioleate	6
PEG-4 distearate	5

Same assay, conditions: PEG-Fatty Acid Monoester Surfactants; cited from earlier work

Compound	HLB
PEG-100 stearate	19
PEG-40 oleate	17.4
PEG 4-100 monostearate	>6
PEG 100, 200, 300 monooleate	>10
PEG 400-1000 monostearate	>10
PEG-4 stearate	6.5
PEG-600 oleate	>10
PEG 100, 200, 300 monolaurate	>10
PEG-15 stearate	14
PEG-4 oleate	8.3
PEG-2 oleate	4.5
PEG 4-100 monolaurate	>9
PEG-1 stearate	2
PEG-100 oleate	18.8

Same assay, conditions: Polyglycerized Fatty Acids; cited from earlier work

Compound	HLB
Polyglyceryl-2 oleate	5-7
Polyglyceryl-3 distearate	<10
Polyglyceryl-6 pentaoleate	<10
Polyglyceryl-4 stearate	5-6
Polyglyceryl-4 oleate	5-7
Polyglyceryl-3 dioleate	<10
Polyglyceryl-2 stearate	5-7
Polyglyceryl-10 septaoleate	3
Polyglyceryl-6 oleate	9
Polyglyceryl-10 tetraoleate	6.2
Polyglyceryl-10 trioleate	7
Polyglyceryl-2 isostearate	5-7
Polyglyceryl-10 oleate	14
Polyglyceryl-10 decaisostearate	<10

Same assay, conditions: Propylene Glycol Fatty Acid Esters; cited from earlier work

Compound	HLB
CCCCCCCC(=O)OCC(C)OC(=O)CCCCCCC (stereo not drawn) [Propylene glycol dicaprylate]	>6

Same assay, conditions: Sorbitan Fatty Acid Ester Surfactants; as reported by the manufacturer; cited from earlier work

Compound	HLB
Sorbitan trioleate	4.3
Sorbitan monoisostearate	4.7
Sorbitan monooleate	4.3
CCCCCCCCCCCCCCCC(=O)OC[C@@H](O)[C@H]1OC[C@H](O)[C@H]1O [Sorbitan monopalmitate]	6.7

Same assay, conditions: Sterol and Sterol Derivative Surfactants; cited from earlier work

Compound	HLB
PEG-30 cholestanol	>10
PEG-24 cholesterol ether	>10

Same assay, conditions: Sugar Ester Surfactants; as reported by the manufacturer; cited from earlier work

Compound	HLB
Sucrose dipalmitate	7.4

Same assay, conditions: Transesterification Products of Oils and Alcohols; cited from earlier work

Compound	HLB
Pentaerythrityl tetraisostearate	<10
CCCCCCCC/C=C\CCCCCCCC(=O)OCC(COC(=O)CCCCCCC/C=C\CCCCCCCC)(COC(=O)CCCCCCC/C=C\CCCCCCCC)COC(=O)CCCCCCC/C=C\CCCCCCCC [Pentaerythrityl tetraoleate]	<10

Test: Stability of bupropion HBr polymorphic forms I, II and III by PXRD under ICH conditions
Assay type: physicochemical
Conditions: ICH conditions 40° C., 75% R.H.; listed as form III, hydrobromide
Method: It is well known that organic molecules can crystallize into solid forms. Moreover the same organic compound may assume different crystalline arrangements in solid form, depending on the conditions under which the crystal product is formed. This phenomenon is commonly known as polymorphism. […] The crystal forms of the products obtained in this study were determined by powder X-ray diffraction (PXRD). A RIGAKU miniflex instrument (Radiation Cu K∝, generator 30 KV, filter Ni) was used to obtain the PXRD data.
The three polymorphic forms were subjected to stability testing. […] Samples of the polymorphic forms II and III were tested after 1 month under the same accelerated stability conditions.
Samples of bupropion HBr form I were subjected to the conditions for the accelerated stability study as described in Example 10 and the shelf life stability study as described in Example 11.
10 g of bupropion HBr form I were dissolved in a mixture of 170 ml of acetone and 7 ml of water. The mixture was brought to reflux with dissolution of the solid. The solution was then cooled to room temperature. After one night the precipitate formed was filtered and dried at 40° C. under vacuum (30 mmHg) for 12 hours. […] The crystalline form was checked after maintaining the product under these conditions for 1 month.
The mixture was brought to reflux obtaining complete dissolution of the solid. The solution was then cooled to room temperature without stirring and left in these conditions for 18 hours. The resulting crystalline solid was then filtered and dried under vacuum (30 mmHg) at 50° C. for 4 hours. […] The crystalline form was checked after maintaining the product in these conditions for 1 month.

Compound	Stability of the polymorphic form (words)
Br.CC(NC(C)(C)C)C(=O)c1cccc(Cl)c1 (stereo not drawn) [Form III, bupropion hydrobromide]	not as stable as forms I and II

Same assay, conditions: ICH conditions 40° C./75% r.h., 1 month; listed as bupropion HBr form III, hydrobromide

Compound	PXRD profile / crystalline form after storage (words)
Br.CC(NC(C)(C)C)C(=O)c1cccc(Cl)c1 (stereo not drawn) [Form III, bupropion hydrobromide]	the majority of the product changed to form II

Same assay, conditions: ICH conditions 40° C./75% r.h., 1 month; listed as form III, hydrobromide

Compound	PXRD profile / crystalline form after storage (words)
Br.CC(NC(C)(C)C)C(=O)c1cccc(Cl)c1 (stereo not drawn) [Form III, bupropion hydrobromide]	conversion to form II

Test: Forced degradation stability study of bupropion salts spiked with placebo/excipients, closed vials, 40° C./75% RH, HPLC assay and impurities
Conditions: 10 days, 40° C./75% RH, closed vials, with or without excipients
Method: The stability of the salts was evaluated based on the formation of the main degradation products (see below) as determined by HPLC analysis and the % potency (or assay) of the API, after specific time periods in the stability chamber. The effect of the addition of solvents, such as water, ethanol and isopropyl alcohol, was also studied.
The samples of each salt and the spiked salts with the bupropion HCl XL were prepared under the conditions mentioned in Table 4. […] The stability of the bupropion salts were evaluated based on the formation of the main degradation product 3-chlorobenzoic acid (3-CBZ) and the intermediate degradation products diketone 827U76 and the ketohydroxyl derivatives (20U78 and 852U77) (Scheme 2).
As mentioned above, the stability samples were prepared in 2 mL vials and used directly for assay and impurity analysis by HPLC without further sample preparations to minimize errors.

Compound	Stability in the 10 days forced degradation study
tartrate	not stable

Same assay, conditions: DS and spiked DS, 40° C./75% RH

Compound	Stability in the forced degradation stability studies, overall
tartrate	very poor
oxalate	very poor

Same assay, conditions: In IPA/EtOH, 32 days, closed vials

Compound	Content of impurity 3-CBZ, order of salts	Content of impurity 852U77, order of salts	Total imp., order of salts
Bupropion Fumarate	maleate > HBr > HCl > Fumarate	fumarate > HBr ≈ HCl ≈ maleate ≈ tosylate	fumarate > maleate > HBr > HCl > tosylate

Same assay, conditions: In water, 32 days, closed vials

Compound	Content of impurity 3-CBZ, order of salts	Content of impurity 852U77, order of salts	Total imp., order of salts
Bupropion Fumarate	HCl > HBr ≈ maleate ≈ fumarate	fumarate > HBr > maleate > HCl	fumarate > HBr > HCl > tosylate > maleate

Test: Recrystallization screen for bupropion hydrobromide polymorphic forms (PXRD)
Assay type: physicochemical
Conditions: Form I in rotavapor 100° C. 24 h
Method: It is well known that organic molecules can crystallize into solid forms. Moreover the same organic compound may assume different crystalline arrangements in solid form, depending on the conditions under which the crystal product is formed. This phenomenon is commonly known as polymorphism. A study was undertaken to explore the polymorphic forms of bupropion hydrobromide. The crystal forms of the products obtained in this study were determined by powder X-ray diffraction (PXRD). A RIGAKU miniflex instrument (Radiation Cu K∝, generator 30 KV, filter Ni) was used to obtain the PXRD data.
Polymorphic form II was obtained by recrystallization of form 1 from solvents or mixtures of solvents such as acetone-water, methanol, dichloromethane, toluene-methanol and dimethylcarbonate-methanol. Polymorphic form III was obtained by recrystallization of polymorphic form I in methanol. Table 80 provides a list of recrystallization conditions and the polymorphic form obtained under each set of conditions.

Compound	K.F. (%)
Br.CC(NC(C)(C)C)C(=O)c1cccc(Cl)c1 (stereo not drawn) [Bupropion Hydrobromide 116]	0.45

Same assay, conditions: recrystallized product; solvent/cosolvent differ per trial, trial no. in label

Compound	K.F. (%)
Br.CC(NC(C)(C)C)C(=O)c1cccc(Cl)c1 (stereo not drawn) [Bupropion Hydrobromide 113]	0.39
Br.CC(NC(C)(C)C)C(=O)c1cccc(Cl)c1 (stereo not drawn) [Bupropion Hydrobromide 111]	0.32
Br.CC(NC(C)(C)C)C(=O)c1cccc(Cl)c1 (stereo not drawn) [Bupropion Hydrobromide 097]	0.06
Br.CC(NC(C)(C)C)C(=O)c1cccc(Cl)c1 (stereo not drawn) [Bupropion Hydrobromide 117]	0.32
Br.CC(NC(C)(C)C)C(=O)c1cccc(Cl)c1 (stereo not drawn) [Bupropion Hydrobromide 099]	0.12
Br.CC(NC(C)(C)C)C(=O)c1cccc(Cl)c1 (stereo not drawn) [Bupropion Hydrobromide 112]	0.18
Br.CC(NC(C)(C)C)C(=O)c1cccc(Cl)c1 (stereo not drawn) [Bupropion Hydrobromide 098A]	0.13
Br.CC(NC(C)(C)C)C(=O)c1cccc(Cl)c1 (stereo not drawn) [Bupropion Hydrobromide 122]	1.3
Br.CC(NC(C)(C)C)C(=O)c1cccc(Cl)c1 (stereo not drawn) [Bupropion Hydrobromide 098B]	0.16
Br.CC(NC(C)(C)C)C(=O)c1cccc(Cl)c1 (stereo not drawn) [Bupropion Hydrobromide 108]	0.14
